Measured values reported in patent US12385042B2, “Cell-penetrating peptides” (VECTIOPEP OÜ, priority 2019, dated 2025).
Entries after “also recorded” stand apart in the source; their conditions may differ. Where a SMILES comes first, the peptide text is derived from it. Bridges are numbered along the chain shown (N, C = ends). Roman numbers before positions name the chains, in order. [ ]: non-standard residue; d: D form. The star is where a group is joined. Arachidoyl = CCCCCCCCCCCCCCCCCCCC(=O)*; Stearoyl = CCCCCCCCCCCCCCCCCC(=O)*; Orn = NCCC[C@H](N)C(=O)O

Tests used:
[1] = test system: murine red blood cells; test: Membrane activity assay on murine red blood cells: hemolysis; type: cell-based, mouse; conditions: for HC50 Free peptide: pH 7.5; for pH dependent hemolytic activity (in words): buffer pH 5.5-7.5
Description: For evaluation of membrane activity of peptides, hemolysis assay was used. For this whole blood was collected from mouse (adult, BALB/c) saphenous vein into a heparinized collection tube. Blood was centrifuged (2300× g, 15 min) to separate cells (red blood cells-RBC) from the plasma. RBCs were washed according to following procedures.
RBCs were washed with 10 ml 0.9% NaCl saline and centrifuged (600× g, 15 min). Supernatant was discarded after each centrifugation. This was repeated at least 3 times. RBCs were re-suspended in 5 ml saline and distributed equally to tubes and centrifuged (600× g, 15 min). The cells were washed and re-suspended in 2× PBS with the required pH (pH 5.5-7.5). The hemoglobin content in stocks was measured after lysis of cells with equal volume of 0.1% Triton X100 supplemented with 5% glucose. The cell suspension was diluted accordingly for each pH value to obtain similar concentration range of hemoglobin in stocks. To each 100 ul of peptide solution 100 ul of 10% glucose was added, mixed, and equal volume (200 ul) of RBC in 2× PBS were added and gently mixed. Peptide solution with RBCs was incubated at 37° C. for 1 h with gentle mixing (max 300 rpm) after which samples were centrifuged to pellet intact cells from the solution. Hemoglobin from lysed cells was determined from each sample from the supernatant on transparent 96-well plates by measuring the absorbance at 540 nm.
Controls were incubated in similar manner as samples. As a non-hemolysis control mQ supplemented with glucose (0%) was used and for hemolytic control 0.1% TritonX-100 with glucose (100%) was used (cells are suspended in 2× PBS before addition). Final percent was calculated as follows: […]
For hemolytic concentration determination 2× PBS at pH 7.5 was used for incubation and 1× PBS at pH 7.5 was used for washing. Everything else is as described in previous paragraph.

[2] = test system: U87 MG-luc2 human glioma cells, stably expressing luc2; test: Luciferase gene downregulation by CPP/siRNA (siLuc2) complexes; type: cell-based; conditions: for Red (%) (reduction, based on remaining luminescence on U87 cells post-treatment) / luciferase downregulation efficiency (in words): CPP/siRNA complexes; for Red (%) (reduction, based on remaining luminescence on U87 cells post-treatment): siRNA against luciferase; for luciferase downregulation efficiency (in words): comparison between CPPs
Description: (§1) For assessing the siRNA mediated RNAi, CHO-GFP or U87-luc2 cells (5×10^5 cells per well) were seeded on a 24-well plate a day prior to the experiment and grown in serum containing media. On experiment day, prior to adding pre-formed complexes ( 1/10th of the final volume per well), media was replaced with fresh serum containing medium.
(§2) For complex formation, peptide was mixed with luc2 siRNA (sense 5′-[…]-3′ (SEQ ID NO:7), antisense 5′-[…] 3′ (SEQ ID NO:8), Metabion, Germany) or with siRNA against GFP (5′-[…] (SEQ ID NO:9), 3′-[…] (SEQ ID NO:10)) in mQ water (pH 5.3-6.3) using peptide to siRNA molar ratios (MR is the ratio of peptide to siRNA) […] and incubated at RT for 1 h. For siLuc2, the final concentration in media was 25 nM and for siGFP 100 nM. Cells were co-incubated with complexes for 4 h (37° C., 5% CO2), thereafter fresh serum containing media was added and followed by further incubation (20 h for siLuc2 or 44 h for siGFP complexes). Luciferase gene downregulation was measured from cell lysates with Promega luciferase assay system (Promega, Sweden) in combination with GLOMAX 96 microplate luminometer equipped with GLOMAX 1.9.2 software (Promega). GFP was measured after treatment from cell lysates on black 96-well plates by measuring total fluorescence (Symergy MX, BioTek Instruments, USA equipped with Gen5 1.10 software). The results were normalized to the protein content of each sample (DC Protein Assay, BioRad, USA).
Luciferase activity was determined as described in previous paragraph.
For determination of pH dependency on the transfection efficiency, complexes were formed at MR30, incubated and diluted before addition to cells to obtain siRNA final concentration 10 nM in transfection media. HEPES buffer supplemented with 10% FBS was used as transfection media. Complexes were co-incubated with cells for 4 h and then media was replaced with cell growth media. After further 20 h incubation cells were lysed and analyzed as described previously.
The experiment was carried out in serum containing media (10% FBS). CPP/siRNA complexes were formed at different molar ratios with siRNA concentration kept constant (50 nM in transfection media). Luminescence from luciferin-luciferase reaction was measured at 24 hours post-treatment from cell lysate. Results were normalized to protein content and luminescence values from untreated cells (100%).

[3] = Negative staining TEM of CPP/siRNA nanoparticles; type: physicochemical; conditions: CPP/siRNA complexes at MR30
Description: For the morphological analysis the CPP/siRNA complexes were assembled as described above at MR30. For negative staining, copper grids were covered with Formvar film and carbon layer using Leica EM ACE600 carbon coater (Leica Microsystems, Germany). Then, 10 μL of each sample was absorbed to the grids for 2 min and excess of solution was gently removed. Samples were then exposed to 2% aqueous uranyl acetate solution for 1 min. After removing excess stain with filter paper, the samples were allowed to air-dry. The samples were examined at 120 kV accelerating voltage on FEI Tecnai G2 Spirit electron microscope (FEI, The Netherlands).

[4] = Fluorescent dye (PicoGreen) intercalation and heparin displacement assay of CPP/siRNA complexes; type: physicochemical
Description: Complexation of siRNA and CPPs was assessed by Quant-iT™ PicoGreen® (PG) (Thermo Fisher Scientific, USA) assay in mQ water. Complexes were prepared as described previously, following addition of diluted PG. For detection, complexes (⅕ of volume), water (3/5) and PG (1/5) working dilution was incubated for 5 minutes and fluorescence was measured by fluorimeter (λex=492 nm, λem=535 nm) (SynergyMx, BioTek). For heparin displacement, instead of water, heparin salt solution at different concentrations were used and complexes incubated at 37° C. for 30 min before addition of PG dilution. Complex formation was also confirmed by gel electrophoresis (details in section 2.11).

[5] = test system: CHO stably expressing green fluorescent protein (GFP); test: GFP gene downregulation by CPP/siGFP complexes (lysate fluorescence, FACS, confocal); type: cell-based
Description: as §1, §2
For flow cytometry analysis (FACS) analysis CHO-GFP cells were seeded and treated as described previously. After incubation, cells were washed with 1× PBS and detached from plates with trypsin-EDTA (0.25%), and re-suspended in PBS supplemented with FBS (5%) and transferred to transparent U-bottom 96-well plates. FACS was carried out with BD LSR II flow cytometer (BD Biosciences, San Jose, CA, USA) equipped with a 488 nm argon laser. Population of viable cells was determined from scatter plot: forward scattered plot (FSC) vs. side scattered light (SSC) plot. A minimum of 10,000 events from the viable cell population per sample were analyzed using BD FACS Diva software. Results are shown as the population with GFP signal lower than that of 0.1% of untreated cells.
For confocal microscopy 2×10^5 cells per chamber were seeded on NUNC 8-chamber plates. After treatment with complexes (25 ul of pre-formed CPP/siRNA complexes added to cells in 225 ul serum containing media), incubated (48 h) and GFP florescence images of cells were captured using confocal microscope Zeiss LSM 710 and excitation at 488 nm (493-616 filter).

[6] = test system: CHO cells; test: pDNA (p-CMV-Luc2) transfection with CPP/pDNA complexes; type: cell-based; conditions: serum containing medium, CR1 to CR4, 24 h
Description: For the pDNA transfection experiment, CPP/pDNA nanoparticles were prepared by mixing […] of plasmid (p-CMV-Luc2) with the peptide in MQ water. Charge ratios from 1 to 4 (CR, equivalent to the nitrogen-to-phosphate ratio) were used. 50,000 CHO cells were seeded 24 hr before the experiment into 24-well plates, treated with complexes for 4 h in serum-containing medium, incubated for additional 20 hr, lysed and luminescence was measured.

Compound	Red (%) (reduction, based on remaining luminescence on U87 cells post-treatment) [2]	length or size of elongated particles, conglomerates or aggregates (TEM) [3]	luciferase downregulation efficiency (in words) [2]	pDNA delivery / gene expression in vitro (in words) [6]	also measured
CCCCCCCCCCCCCCCCCC(=O)N[C@@H](C)C(=O)NCC(=O)N[C@@H](Cc1ccc(O)cc1)C(=O)N[C@@H](CC(C)C)C(=O)N[C@@H](CC(C)C)C(=O)NCC(=O)NCCC[C@H](N)C(=O)N[C@H](C(=O)N[C@@H](CC(N)=O)C(=O)N[C@@H](CC(C)C)C(=O)N[C@@H](CCCCN)C(=O)N[C@@H](C)C(=O)N[C@@H](CC(C)C)C(=O)N[C@@H](C)C(=O)N[C@@H](C)C(=O)N[C@@H](CC(C)C)C(=O)N[C@@H](C)C(=O)N[C@@H](CCCCN)C(=O)N[C@@H](C)C(=O)N[C@H](C(=O)N[C@@H](CC(C)C)C(N)=O)[C@@H](C)CC)[C@@H](C)CC [NF55, reference compound] (I: H-[Orn]INLKALAALAKAIL-NH2 / II: Stearoyl-AGYLLG; amide I:1-II:C)	75%	up to 100 nm			HC50 CPP/siRNA complex (peptide concentration) ([1]; CPP/siRNA complexes at MR30): 3.2 µM; HC50 Free peptide ([1]; free peptide): 1.7 µM; increase of hemolytic activity at pH 5.5 ([1]; peptide 0.75 uM, buffer pH 5.5): 25%; pH dependent hemolytic activity (in words) ([1]; peptide 0.75 uM): least influenced by the pH decrease; nanoparticle diameter / size (TEM) [3]: 10-50 nm; siRNA accessible ([4]; 0.5 mg/ml heparin, complexes pre-formed at MR30): 10%
CCCCCCCCCCCCCCCCCCCC(=O)N[C@@H](Cc1c[nH]cn1)C(=O)N[C@@H](Cc1c[nH]cn1)C(=O)N[C@@H](Cc1c[nH]cn1)C(=O)N[C@@H](Cc1c[nH]cn1)C(=O)N[C@@H](Cc1c[nH]cn1)C(=O)N[C@@H](Cc1c[nH]cn1)C(=O)N[C@@H](Cc1ccc(O)cc1)C(=O)N[C@@H](Cc1c[nH]cn1)C(=O)N[C@@H](Cc1c[nH]cn1)C(=O)NCC(=O)NCCC[C@H](N)C(=O)N[C@H](C(=O)N[C@@H](CC(C)C)C(=O)N[C@@H](CC(C)C)C(=O)N[C@@H](CCCCN)C(=O)N[C@@H](C)C(=O)N[C@@H](CC(C)C)C(=O)N[C@@H](CCCCN)C(=O)N[C@@H](C)C(=O)N[C@@H](CC(C)C)C(=O)N[C@@H](C)C(=O)N[C@@H](CCCCN)C(=O)N[C@@H](C)C(=O)N[C@H](C(=O)N[C@@H](CC(C)C)C(N)=O)[C@@H](C)CC)[C@@H](C)CC [NF72] (I: H-[Orn]ILLKALKALAKAIL-NH2 / II: Arachidoyl-HHHHHHYHHG; amide I:1-II:C)	80%		significantly less efficient than other compared CPPs		HC50 Free peptide ([1]; free peptide): >10 µM; hemolytic activity of free peptide (in words) ([1]; free peptide, up to 10 uM): less hemolytic than that of other peptides; pH dependent hemolytic activity (in words) ([1]; peptide 0.75 uM): almost no effect at physiologic pH, but lysed almost all cells at pH 5.5; remaining reporter activity ([2]; molar ratio 30 (MR30, peptide to siRNA), untreated cells 100%): 34%; cells with downregulated reporter gene (GFP signal below threshold), FACS ([5]; CHO-GFP, CPP/siGFP complexes): 40%; GFP signal in confocal images ([5]; live cells treated with CPP/siGFP complexes): higher GFP signal when compared to complexes formed with peptides with less histidines in sequence; accessibility of siRNA in complexes (dye intercalation) ([4]; MR30, no heparin): low accessibility of siRNA
HHHHYHHGO^eILLKALKALAKAIL [NF700, group H6; without fatty acid; C-terminally amidated]	6%	exceed 500 nm	do not reveal any significant luciferase silencing activity		
HHHHYHHGO^eILLKALKALAKAIL [NF702, group H6; C18 saturated fatty acid on N-terminus; C-terminally amidated]	70%			almost yielded the same gene expression level as that of NF70 and NF55; also recorded: promising vectors for pDNA transfection	
HHHHYHHGO^eILLKALKALAKAIL [NF703, group H6; C22 saturated fatty acid on N-terminus; C-terminally amidated]	73%	10-20 nm	RNA interference effect decreases again		
HHHYHHGO^eILLKALKALAKAIL [NF716, group H5; C20 saturated fatty acid on N-terminus; C-terminally amidated]	65%			promising vectors for pDNA transfection	
HYHHGO^eILLKALKALAKAIL [NF727, group H3; C22 saturated fatty acid on N-terminus; C-terminally amidated]	43%			promising vectors for pDNA transfection	
